Columns and labels:
M4 muscarinic receptor = molecular target: T1, M4 muscarinic receptor (Homo sapiens, UniProt P08173); assay: Functional mobilization of intracellular calcium (FLIPR) in M4-CHO cells; format: cell-based; conditions: Table 4; for Emax: 100% efficacy is the maximum response obtained with the Carbachol control; for M4 Activity: modulating M4 receptor
T1 construct: expressed in transfected cells; host or cells: CHO (M4-CHO)
T1 sequence (P08173 1-479): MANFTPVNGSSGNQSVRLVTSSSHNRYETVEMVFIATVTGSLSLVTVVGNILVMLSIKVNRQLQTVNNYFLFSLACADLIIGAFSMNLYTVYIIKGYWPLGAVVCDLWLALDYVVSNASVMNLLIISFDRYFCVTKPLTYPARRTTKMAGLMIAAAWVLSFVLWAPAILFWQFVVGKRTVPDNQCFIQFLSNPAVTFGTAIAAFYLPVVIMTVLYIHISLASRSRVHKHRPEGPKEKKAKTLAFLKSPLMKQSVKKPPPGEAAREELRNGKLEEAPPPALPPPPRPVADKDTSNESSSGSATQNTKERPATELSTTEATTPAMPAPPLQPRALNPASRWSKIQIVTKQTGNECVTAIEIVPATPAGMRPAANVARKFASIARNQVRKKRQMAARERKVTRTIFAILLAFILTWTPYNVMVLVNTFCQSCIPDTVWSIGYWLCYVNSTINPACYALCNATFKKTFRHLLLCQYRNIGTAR
In short: (§1)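 CHO cells stably expressing human M1 or M4 receptor were loaded with Fluo-3 AM (or Calcium 3 dye) in Hepes-buffered saline, pH 7.4, with 1 mM probenecid, 0.5% final DMSO. Agonist mode: compound added directly; antagonist mode: 15 min preincubation before carbachol at EC80. FLIPR fluorescence recorded 60 sec.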

M1 muscarinic receptor = molecular target: T2, M1 muscarinic receptor (Homo sapiens, UniProt P11229); assay: Functional mobilization of intracellular calcium (FLIPR) in M1-CHO cells; format: cell-based; conditions: Table 4; for Emax: 100% efficacy is the maximum response obtained with the Carbachol control; for M1 Activity: modulating M1 receptor
T2 construct: expressed in transfected cells; host or cells: CHO (M1-CHO)
T2 sequence (P11229 1-460): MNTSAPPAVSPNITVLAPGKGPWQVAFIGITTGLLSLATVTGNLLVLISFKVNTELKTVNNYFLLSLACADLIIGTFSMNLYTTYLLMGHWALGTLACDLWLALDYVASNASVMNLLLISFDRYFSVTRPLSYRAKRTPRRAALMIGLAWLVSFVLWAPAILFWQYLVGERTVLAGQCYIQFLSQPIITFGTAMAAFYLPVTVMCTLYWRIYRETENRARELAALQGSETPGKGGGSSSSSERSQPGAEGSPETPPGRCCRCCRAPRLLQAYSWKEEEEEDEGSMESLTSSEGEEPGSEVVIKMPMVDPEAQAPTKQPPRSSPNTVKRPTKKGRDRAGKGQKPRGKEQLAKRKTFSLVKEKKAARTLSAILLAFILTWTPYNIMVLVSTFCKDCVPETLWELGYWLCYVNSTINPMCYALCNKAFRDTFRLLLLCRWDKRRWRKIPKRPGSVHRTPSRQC
In short: as §1

Structure (SMILES) | Emax (M4 muscarinic receptor) [%] | M4 Activity (M4 muscarinic receptor) | Emax (M1 muscarinic receptor) [%] | M1 Activity (M1 muscarinic receptor)
CC(=O)N1CC2(CCN(C3CCN(c4nc(C)cs4)CC3)CC2)c2ccccc21 [compound 471] | 25 to 100 | xx (activity was measured to be between 2.0 μM and 5.0 μM) | 25 to 100 | xx (activity was measured to be between 2.0 μM and 5.0 μM)
CCOC(=O)N1CCC(N2CCC3(CC2)CN(C2CCC(=O)CC2)c2ccccc23)CC1 [compound 472] | 25 to 100 | xxx (activity was measured to be less than 2.0 μM) | > 100 | xxx (activity was measured to be less than 2.0 μM)
CCOC(=O)N1CCC(N2CCCC3(CC2)CN(C(C)=O)c2ccc(F)cc23)C1 (stereo not shown) [compound 473] | < 25 | x (activity was measured to be greater than 5.0 μM) | 25 to 100 | x (activity was measured to be greater than 5.0 μM)
COCCN1CCC(N2CCC3(CC2)CN(C(C)=O)c2ccc(F)cc23)CC1 [compound 474] | < 25 | x (activity was measured to be greater than 5.0 μM) | < 25 | x (activity was measured to be greater than 5.0 μM)
CC(=O)N1CC2(CCN(C3CC4CCC(C3)N4C(=O)OCC(C)(C)C)CC2)c2ccccc21 (stereo not shown) [compound 476] | < 25 | x (activity was measured to be greater than 5.0 μM) | < 25 | x (activity was measured to be greater than 5.0 μM)
CCCCc1cncc(N2CCC(N3CCC4(CC3)CN(C(C)=O)c3ccccc34)CC2)n1 [compound 477] | < 25 | x (activity was measured to be greater than 5.0 μM) | < 25 | x (activity was measured to be greater than 5.0 μM)
CCCOC(=O)N1CC[C@@H](CN2CCC3(CC2)CN(C(C)=O)c2ccccc23)C1 [compound 478] | < 25 | x (activity was measured to be greater than 5.0 μM) | < 25 | x (activity was measured to be greater than 5.0 μM)
CC#CC(C)OC(=O)N1CC[C@@H](CN2CCC3(CC2)CN(C(=O)N(C)C)c2ccc(F)cc23)C1 (stereo partly shown) [compound 479] | < 25 | xxx (activity was measured to be less than 2.0 μM) | 25 to 100 | xxx (activity was measured to be less than 2.0 μM)
CC(=O)N[C@H]1CC2(CCN(CC(=O)N3CCOCC3)CC2)c2ccccc21 [compound 480] | < 25 | x (activity was measured to be greater than 5.0 μM) | < 25 | x (activity was measured to be greater than 5.0 μM)
CCC#CCOC(=O)N1CC[C@@H](CN2CCC3(CC2)CN(C(C)=O)c2ccccc23)C1 [compound 481] | 25 to 100 | xxx (activity was measured to be less than 2.0 μM) | 25 to 100 | xxx (activity was measured to be less than 2.0 μM)
CCOC(=O)N1CC[C@H](CN2CCC3(CC2)CN(C(C)=O)c2ccccc23)C1 [compound 482] | 25 to 100 | xxx (activity was measured to be less than 2.0 μM) | 25 to 100 | xxx (activity was measured to be less than 2.0 μM)
CC1(C)C(=O)c2ccccc2C12CCN([C@H]1C[C@@H]3CC[C@@H]1C3)CC2 [compound 483] | < 25 | x (activity was measured to be greater than 5.0 μM) | < 25 | x (activity was measured to be greater than 5.0 μM)
CCOC(=O)N1C2CCC1CC(N1CCC3(CCCc4ccccc43)CC1)C2 (stereo not shown) [compound 484] | 25 to 100 | xxx (activity was measured to be less than 2.0 μM) | 25 to 100 | xxx (activity was measured to be less than 2.0 μM)
CC#CC(C)OC(=O)N1CC[C@H](CN2CCC3(CC2)CN(C(=O)N(C)C)c2ccc(F)cc23)C1 (stereo partly shown) [compound 485] | < 25 | xxx (activity was measured to be less than 2.0 μM) | 25 to 100 | xx (activity was measured to be between 2.0 μM and 5.0 μM)
CC(=O)N[C@@H]1CCC2(CCN(CC3CC4C=CC3C4)CC2)c2ccccc21 (stereo partly shown) [compound 486] | 25 to 100 | xxx (activity was measured to be less than 2.0 μM) | < 25 | x (activity was measured to be greater than 5.0 μM)
O=C(N[C@H]1CC2(CCN([C@@H]3C[C@H]4CC[C@@H]3C4)CC2)c2ccccc21)N1CCCC1 [compound 487] | 25 to 100 | xxx (activity was measured to be less than 2.0 μM) | < 25 | x (activity was measured to be greater than 5.0 μM)
O=C(O)C1CC2(CCN(C3CCCCCC3)CC2)c2ccccc21 (stereo not shown) [compound 488] | 25 to 100 | x (activity was measured to be greater than 5.0 μM) | 25 to 100 | x (activity was measured to be greater than 5.0 μM)
CC(=O)N1CC2(CCN(C3CCN(c4cncc(C)n4)CC3)CC2)c2ccccc21 [compound 489] | 25 to 100 | xxx (activity was measured to be less than 2.0 μM) | 25 to 100 | xxx (activity was measured to be less than 2.0 μM)
CCC(=O)N[C@H]1CC2(CCN([C@@H]3C[C@@H]4CC[C@@H]3C4)CC2)c2ccccc21 [compound 490] | > 100 | xxx (activity was measured to be less than 2.0 μM) | 25 to 100 | x (activity was measured to be greater than 5.0 μM)
CCOC(=O)N1CCC(N2CCC3(CC2)CN(C(C)=O)c2c(-c4ccc(C(C)=O)cc4)cccc23)CC1 [compound 491] | < 25 | xx (activity was measured to be between 2.0 μM and 5.0 μM) | 25 to 100 | xx (activity was measured to be between 2.0 μM and 5.0 μM)
CN(C)C(=O)N1CC2(CCN(C3CCN(C(=O)CCC#N)CC3)CC2)c2cc(F)ccc21 [compound 492] | < 25 | x (activity was measured to be greater than 5.0 μM) | 25 to 100 | x (activity was measured to be greater than 5.0 μM)
C#CCOC(=O)N1CC[C@H](CN2CCC3(CC2)CN(C(C)=O)c2ccccc23)C1 [compound 493] | > 100 | xxx (activity was measured to be less than 2.0 μM) | > 100 | xxx (activity was measured to be less than 2.0 μM)
CCOC(=O)N1CCC(N2CCC3(CC2)CN(C(=O)NC(C)C)c2ccccc23)CC1 [compound 494] | 25 to 100 | xxx (activity was measured to be less than 2.0 μM) | 25 to 100 | xx (activity was measured to be between 2.0 μM and 5.0 μM)
CC(=O)N1CC2(CCN(C3CCN(C(=O)OCC(C)(C)C)CC3)CC2)c2ccccc21 [compound 496] | < 25 | x (activity was measured to be greater than 5.0 μM) | < 25 | x (activity was measured to be greater than 5.0 μM)
CN(C)C(=O)N1CC2(CCN(C3CCN(c4nccnc4C#N)CC3)CC2)c2cc(F)ccc21 [compound 497] | 25 to 100 | xx (activity was measured to be between 2.0 μM and 5.0 μM) | 25 to 100 | xx (activity was measured to be between 2.0 μM and 5.0 μM)
Cc1ccc2c(c1)C(=O)CC21CCN(CC2C[C@H]3C=C[C@H]2C3)CC1 (stereo partly shown) [compound 498] | 25 to 100 | xxx (activity was measured to be less than 2.0 μM) | 25 to 100 | xxx (activity was measured to be less than 2.0 μM)
CCOC(=O)N1CCC(N2CCC3(CC2)CN(C(C)=O)c2c(-c4cccc(F)c4)cccc23)CC1 [compound 499] | < 25 | x (activity was measured to be greater than 5.0 μM) | 25 to 100 | x (activity was measured to be greater than 5.0 μM)
COc1ccc(CC(=O)N2CCC(N3CCC4(CC3)CN(C(=O)N(C)C)c3ccc(F)cc34)CC2)cc1 [compound 500] | < 25 | x (activity was measured to be greater than 5.0 μM) | < 25 | x (activity was measured to be greater than 5.0 μM)
